Test systems include HCC-2998 colon; LOX IMVI melanoma; SK-MEL-5 melanoma; SN12C renal; U251 CNS; NCI-H522 lung.
Assay in all cases: NCI anticancer screen, dose series, 48 h

Several values for one entry are separate records, joined by “and”; a condition that tells them apart may be missing. Identical values can stand only once.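 Dose response: 5 concentrations. Exposure: 48 h. Format: 96-well plates. Endpoint: linear interpolation; highest concentration if not reached. Here, GI50 denotes the concentration required for 50% inhibition of growth. TGI denotes the concentration required for complete inhibition of growth.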 Where a SMILES comes first, the peptide text is derived from it. [ ]: non-standard residue; d: D form. Phe(4-Cl) = N[CH](Cc1ccc(Cl)cc1)C(=O)O

Consider `N.N.N.N.N.O=C([O-])c1nn[n-]n1.[Cl-].[Co+3]`, for which the GI50 in the test on HCC-2998 colon, with LOX IMVI melanoma, in the test with SK-MEL-5 melanoma, with SN12C renal and in the test on U251 CNS was > 100 µM each time. Further, the TGI with HCC-2998 colon, in the test on LOX IMVI melanoma, in the test on SK-MEL-5 melanoma, in the test with SN12C renal and with U251 CNS was > 100 µM each time.

Regarding `O=C(O)CN(c1ccccc1)S(=O)(=O)c1ccccc1[N+](=O)[O-]`, the TGI with LOX IMVI melanoma, in the test on NCI-H522 lung, in the test with SK-MEL-5 melanoma, in the test with SN12C renal and with U251 CNS was > 100 µM in each case.

In the case of `Nc1ccc(/C=C/c2ccnc3ccccc23)cc1`, the TGI with HCC-2998 colon was 57.7 µM; in the test on NCI-H522 lung, 30.7 µM; in the test on SK-MEL-5 melanoma, 29.6 µM; with U251 CNS it was 59.4 µM.

Consider `CCOC(=O)NC(=O)c1cn(CCOCCOC(=O)NCCCCCCNC(=O)OCCOCCn2cc(C(=O)NC(=O)OCC)c(=O)[nH]c2=O)c(=O)[nH]c1=O`, for which the TGI with HCC-2998 colon, with LOX IMVI melanoma, with NCI-H522 lung, in the test on SK-MEL-5 melanoma, with SN12C renal and in the test on U251 CNS was > 100 µM each time.

Turning to `CC1=C(C)CC2(CCCCC2=O)S(=O)C1` (configuration not stated), the TGI in the test on HCC-2998 colon, with LOX IMVI melanoma, in the test with SK-MEL-5 melanoma, in the test with SN12C renal and with U251 CNS was > 100 µM throughout.

`Cc1ccccc1N(CCC#N)C1=NN(C(=O)CC(=O)Nc2ccccc2)C(c2ccccc2)C1` (configuration not stated): the TGI in the test with HCC-2998 colon, in the test with NCI-H522 lung, with SK-MEL-5 melanoma, with SN12C renal and in the test on U251 CNS was > 100 µM each time.

In the case of `Cn1cc(C(=O)c2ccccc2)ccc1=O`, the TGI in the test on HCC-2998 colon, in the test with LOX IMVI melanoma, in the test with NCI-H522 lung, with SK-MEL-5 melanoma, in the test on SN12C renal and in the test with U251 CNS was > 100 µM each time.

Take `CC[O-].CC[O-].O=C1c2ccccc2C(=O)c2c(O)ccc([O-])c21.O=C1c2ccccc2C(=O)c2c(O)ccc([O-])c21.[Ti+4]`: the TGI with LOX IMVI melanoma, in the test with NCI-H522 lung, with SK-MEL-5 melanoma and in the test on SN12C renal was > 100 µM each time.

With `CC(O)C(NC(=O)C(Cc1ccccc1)NC(=O)C(NC(=O)C(CCCCN)NC(=O)C(Cc1c[nH]c2ccccc12)NC(=O)C(Cc1ccc(O)cc1)NC(=O)C(Cc1ccc(Cl)cc1)NC(=O)C(N)Cc1ccccc1)C(C)O)C(N)=O` (configuration not stated) (H-F[Phe(4-Cl)]YWKTFT-NH2; configuration not given here), the results for the TGI with HCC-2998 colon, in the test with SN12C renal and with U251 CNS were 73.7 µM, > 100 µM and 35.8 µM, respectively.

On to `CN(C)P(=O)(/C(N)=N/Nc1ccc([N+](=O)[O-])cc1)N(C)C`, for which the TGI in the test with HCC-2998 colon, with LOX IMVI melanoma, in the test with NCI-H522 lung, in the test on SK-MEL-5 melanoma, in the test on SN12C renal and with U251 CNS was > 100 µM each time.

For `COC(=O)c1cccc2cccc(C(=O)Nc3ccc(C)cc3C)c12`, the TGI with HCC-2998 colon, with LOX IMVI melanoma, with NCI-H522 lung, in the test on SK-MEL-5 melanoma, in the test on SN12C renal and with U251 CNS was > 100 µM in each case.

Take `C=CCCCCCCCCC(=O)NS(=O)(=O)c1ccccc1`: the TGI in the test with HCC-2998 colon, in the test with LOX IMVI melanoma, in the test on NCI-H522 lung, in the test with SN12C renal and in the test with U251 CNS was > 100 µM throughout.

Regarding `CCOC(=O)CN=c1nc(SC)sc2c(C(=O)OCC)nc(Sc3ccccc3)n12`, the TGI is > 100 µM with HCC-2998 colon; > 100 µM in the test on LOX IMVI melanoma; 74.3 µM in the test on NCI-H522 lung; > 100 µM with SK-MEL-5 melanoma; > 100 µM in the test on SN12C renal.

For the compound `CC(C)(C)OC(=O)Cc1ccc2c(ccn2Cc2ccccc2)c1`, the TGI in the test on HCC-2998 colon, in the test with LOX IMVI melanoma, with NCI-H522 lung, with SK-MEL-5 melanoma, in the test with SN12C renal and in the test with U251 CNS was > 100 µM throughout.

For `N#Cc1nc(C2OC(COC(=O)c3ccccc3)C(OC(=O)c3ccccc3)C2OC(=O)c2ccccc2)oc1N` (configuration not stated), the TGI in the test on HCC-2998 colon is > 100 µM; in the test on LOX IMVI melanoma, > 100 µM; in the test on NCI-H522 lung it was 65.2 µM; in the test with SK-MEL-5 melanoma it was 40 µM; with SN12C renal it was > 100 µM; in the test on U251 CNS, > 100 µM.

For the compound `Cc1noc(C)c1CCCOC1COc2ccccc2OCCOCCOc2ccccc2OC1`, the TGI with HCC-2998 colon, in the test on LOX IMVI melanoma, with NCI-H522 lung, in the test on SK-MEL-5 melanoma, with SN12C renal and in the test on U251 CNS was > 100 µM each time.

Consider `CN(C)CC/C(=N\Nc1c(Cl)cccc1Cl)c1ccccc1`, for which the TGI in the test on LOX IMVI melanoma came to 31 µM; in the test on NCI-H522 lung, 33.9 µM; with SK-MEL-5 melanoma, 29.5 µM; in the test with SN12C renal, 92.7 µM; with U251 CNS, 31.3 µM.

Regarding `CCOC1=NC(=O)CC(c2ccccc2)S1` (configuration not stated), the TGI with HCC-2998 colon, in the test on LOX IMVI melanoma, with SK-MEL-5 melanoma, in the test with SN12C renal and with U251 CNS was > 100 µM in each case.

As to `COc1ccc2c(c1)CCC1C3(CCCC21C)OCCO3` (configuration not stated), the TGI in the test with HCC-2998 colon was 44.3 µM; with LOX IMVI melanoma it was 30.4 µM; in the test with NCI-H522 lung, 37.4 µM; in the test with SK-MEL-5 melanoma, 31.1 µM; in the test with SN12C renal, 30.5 µM; in the test on U251 CNS, 29.4 µM.

For the compound `COC(=O)C1=NC(=S)NC(c2ccccc2)C1c1nc2ccccc2s1` (configuration not stated), the TGI in the test on HCC-2998 colon, with SK-MEL-5 melanoma, in the test on SN12C renal and in the test on U251 CNS was > 100 µM each time.

For the compound `CC1=C2C(=O)O[C@@H](c3ccoc3)[C@]2(C)CCC1`, the TGI with HCC-2998 colon, with LOX IMVI melanoma, with NCI-H522 lung, with SK-MEL-5 melanoma and in the test with U251 CNS was > 100 µM in each case.

Regarding `Cc1cccc(NC(=O)C(=O)Cc2nc3ccccc3[nH]c2=O)c1C`, the TGI with HCC-2998 colon, in the test on LOX IMVI melanoma, in the test on NCI-H522 lung, with SK-MEL-5 melanoma, in the test on SN12C renal and in the test with U251 CNS was > 100 µM each time.

For `Cc1ccc2nc3c(C(=O)NCCN(C)C)cccc3nc2c1`, the TGI in the test on HCC-2998 colon is 32.3 µM; in the test on LOX IMVI melanoma, 5.19 µM; in the test on NCI-H522 lung, > 100 µM; with SK-MEL-5 melanoma it was > 39.8 µM; in the test with SN12C renal, 27.9 µM; with U251 CNS, 24.3 µM.

`CC(C)=CCC/C(=C/CC/C(C)=C/CCc1ccoc1)C(=O)O`: the TGI with HCC-2998 colon, in the test on LOX IMVI melanoma, with NCI-H522 lung, in the test on SK-MEL-5 melanoma, with SN12C renal and in the test with U251 CNS was > 100 µM throughout.

In the case of `Cc1ccc(S(=O)(=O)n2c(-c3ccccc3)c(-c3ccccc3)c3ccccc32)cc1`, the TGI with HCC-2998 colon, in the test on LOX IMVI melanoma, with NCI-H522 lung, with SK-MEL-5 melanoma, in the test with SN12C renal and in the test with U251 CNS was > 100 µM each time.

As for `COc1c2c(cc3nc4ccccc4nc13)CCC(C(C)(C)O)C2` (configuration not stated), the TGI in the test on HCC-2998 colon, in the test with LOX IMVI melanoma, in the test with NCI-H522 lung, in the test with SK-MEL-5 melanoma, in the test on SN12C renal and in the test with U251 CNS was > 100 µM in each case.

`COc1cc(OC(=O)c2c(O)cc(O)c(O)c2C)cc(C)c1C(=O)Oc1cc(C)c(C(=O)O)c(O)c1`: the TGI in the test on HCC-2998 colon, with LOX IMVI melanoma, with NCI-H522 lung, in the test on SK-MEL-5 melanoma, in the test on SN12C renal and in the test with U251 CNS was > 100 µM in each case.

On to `Cc1ccc(Nc2nc3c(s2)C(=O)c2ccccc2C3=O)c(C)c1`, for which the TGI with HCC-2998 colon turned out to be 31.8 µM; in the test with LOX IMVI melanoma, 35.4 µM; in the test with NCI-H522 lung, 4.66 µM; with SK-MEL-5 melanoma, 28.2 µM; with SN12C renal, 31.1 µM; with U251 CNS, 42.5 µM.

With `CC(=O)OC[C@]12CC[C@H]3[C@@H](C[C@H]4O[C@]45[C@@H](O)C=CC(=O)[C@]35C)[C@@H]1CC[C@@H]2[C@H](C)[C@H]1CC(C)=C(C)C(=O)O1`, the GI50 was 0.822 µM and 0.795 µM in the test with HCC-2998 colon; 0.303 µM and 0.374 µM in the test with LOX IMVI melanoma; 0.259 µM and 0.166 µM in the test with NCI-H522 lung; 0.702 µM and 0.664 µM in the test on SK-MEL-5 melanoma; 0.401 µM and 0.322 µM with SN12C renal; 0.688 µM and 0.742 µM with U251 CNS. In addition, the TGI was 2.07 µM with HCC-2998 colon; 0.692 µM and 1.19 µM in the test on LOX IMVI melanoma; 0.561 µM and 0.406 µM in the test on NCI-H522 lung; 2.02 µM in the test on SK-MEL-5 melanoma; 0.943 µM and 1.16 µM in the test with SN12C renal; 0.91 µM and 1.95 µM with U251 CNS.

These data come from PubChem BioAssay (NCI).
